# Assay results published in US9198909B1, “Materials and methods for inhibiting mamalian S-nitrosoglutathione reductase” (Indiana University Research and Technology Corporation, priority 2007, dated 2015).
# Assays:
# π-ADH = molecular target: T1, π-ADH (Homo sapiens, UniProt P08319); assay: ADH isozyme selectivity study: π-ADH; format: biochemical; settings: about 5 μM inhibitor, pH 7.5, 1 mM NAD+, 35 mM ethanol
# T1 construct: made in house; host or cells: E. coli
# Description: (§1) Referring now to Table 2, briefly inhibition studies were performed in presence or absence of about 5 μM inhibitor. These studies were carried out at 25° C. in 50 mM potassium phosphate pH 7.5 including 0.1 mM EDTA. The enzymes activities were measured by following the changes in absorbance at 340 nm. The values show the percent reduction in the enzyme activity (from a minimum of two measurements) caused by the inhibitor. […] Studies with β2β2-, σσ-, π-ADH and involving compounds 5-8 were performed in 0.05% DMSO. Studies with GSNOR were performed in presence of 1% DMSO, except when compound 4 was the inhibitor. Studies with compound 4 were performed in 0.36% DMSO. DMSO at 0.36% inhibited β2β2-, σσ-, and π-ADH by 24, 18, and 9%, respectively. Studies with β2β2-ADH involved adding 3.5 μg of the enzyme to the assay mixture including 2 mM NAD^+, 1 mM ethanol and the inhibitor.
# (§2) Studies with σσ-ADH involved adding 0.5 μg of enzyme to the assay mixture containing 2 mM NAD^+, 30 mM ethanol and the inhibitor. Studies with π-ADH involved adding 19.5 μg of the enzyme to the assay mixture including 1 mM NAD^+, 35 mM ethanol and the inhibitor. […]
# (§3) Inhibition of the β2β2-, π-, and σ-ADH was evaluated by determining the inhibitory effect of GSNOR inhibitors on the rate of oxidation of ethanol by each of these ADH isozymes. […]
# GSNOR [1] = molecular target: T2, GSNOR (Homo sapiens, UniProt P11766); assay: ADH isozyme selectivity study: GSNOR; format: biochemical; design: made in house; host or cells: E. coli; settings: about 5 μM inhibitor, pH 7.5
# Description: as §1
# Target sequence in this assay (P11766 2-374 limits assumed): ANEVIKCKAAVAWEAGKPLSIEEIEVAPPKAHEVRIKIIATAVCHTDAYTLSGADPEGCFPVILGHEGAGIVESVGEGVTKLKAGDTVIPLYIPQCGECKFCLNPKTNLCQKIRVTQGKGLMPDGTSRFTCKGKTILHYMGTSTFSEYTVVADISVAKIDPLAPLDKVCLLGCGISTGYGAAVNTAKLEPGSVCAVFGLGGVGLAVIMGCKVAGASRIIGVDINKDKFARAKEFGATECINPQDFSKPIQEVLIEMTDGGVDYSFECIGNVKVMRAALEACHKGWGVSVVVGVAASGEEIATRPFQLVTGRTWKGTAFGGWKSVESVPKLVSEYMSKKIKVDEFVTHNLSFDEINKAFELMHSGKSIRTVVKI
# Studies with σσ-ADH involved adding 0.5 μg of enzyme to the assay mixture containing 2 mM NAD^+, 30 mM ethanol and the inhibitor. Studies with π-ADH involved adding 19.5 μg of the enzyme to the assay mixture including 1 mM NAD^+, 35 mM ethanol and the inhibitor. Studies with GSNOR involved adding 0.1 μg of the enzyme to an assay mixture including 15 μM NADH, 5 μM GSNO and the inhibitor.
# σ-ADH = molecular target: T3, σ-ADH (Homo sapiens, UniProt P40394); assay: ADH isozyme selectivity study: σ-ADH; format: biochemical; settings: about 5 μM inhibitor, pH 7.5, 2 mM NAD+, 30 mM ethanol
# T3 construct: made in house; host or cells: E. coli
# T3 sequence (P40394 whole entry): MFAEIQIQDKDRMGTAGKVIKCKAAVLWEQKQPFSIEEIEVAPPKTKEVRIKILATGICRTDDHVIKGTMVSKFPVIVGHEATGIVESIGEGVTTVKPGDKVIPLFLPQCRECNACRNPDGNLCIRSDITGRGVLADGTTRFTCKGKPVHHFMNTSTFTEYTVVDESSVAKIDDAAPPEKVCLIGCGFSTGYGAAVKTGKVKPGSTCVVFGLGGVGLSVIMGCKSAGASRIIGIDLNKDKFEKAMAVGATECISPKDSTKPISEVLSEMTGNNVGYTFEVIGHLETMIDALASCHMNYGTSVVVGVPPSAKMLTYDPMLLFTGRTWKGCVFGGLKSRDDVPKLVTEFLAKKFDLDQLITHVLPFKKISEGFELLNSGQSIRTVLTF
# Description: as §1, §2, §3
# GSNOR [2] = molecular target: T2, GSNOR; assay: Dead-end inhibition studies of GSNOR; format: biochemical; design: made in house; host or cells: E. coli; settings: pH 7.5, 25° C., GSNO held at 10 μM
# Description: Referring now to Table 3, inhibition experiments were performed at 25° C. in 50 mM potassium phosphate (pH 7.5) including 0.1 mM EDTA. A minimum of five concentrations of the varied substrate and three inhibitor concentrations were used for each experiment. NADH and GSNO concentrations were held at 15 or 10 μM, respectively when present as a constant substrate in the assay. The Kis and Kii values are respectively the slope and intercept inhibition constants and are listed along with their associated standard errors. All data were fit to a competitive (C), noncompetitive (NC), or uncompetitive (UC) inhibition models. The type of inhibition shown in the table represents the best fit of the data to the given model as judged from F statistics analysis. […] The dissociation constant was measured at 25° C. in 50 mM potassium phosphate pH 7.5. Each KD value is an average of three independent experiments and is shown with the associated standard error.
# Inhibition experiments with the GSNOR inhibitors were conducted at 25° C. in 3 ml of 50 mM potassium phosphate (pH 7.5) containing 0.1 mM EDTA. […] A minimum of three inhibitor concentrations were used in these assays and the rate of NADH and GSNO consumption was determined spectrophotometrically by following change in absorbance at 340 nm. […]
# Target sequence in this assay (P11766 2-374 limits assumed): as the sequence (P11766 2-374 limits assumed) above
# RAW 264.7 cells = assay: Nitroso species accumulation in RAW 264.7 cells (triiodide chemiluminescence); format: cell-based, rat
# Description: Referring now to FIG. 3, briefly, RAW 264.7 cells were incubated with 500 μM GSNO alone (γ) or in presence of 33 μM Compound 6 (◯) or 7 (Δ) or 8 (▪). At indicated times or at 4 hr (in case of B), the cells were lysed and the lysate was analyzed for protein and nitroso species concentration by Bradford and chemiluminescence assay, respectively. For details, see Materials and methods. Data represents mean±SE (n=3−12).
# RAW 264.7 cells were cultured in DMEM medium supplemented with 10% FBS, 200 U/ml of penicillin and 200 μg/mL of streptomycin. The cells were incubated at 37° C. in an atmosphere containing 5% CO2 and 95% air. For the experiments, 1-2×10^6 cells were plated in six-well plates a day before the experiment. On the day of the assay the medium was replaced with 3 ml of fresh medium and the cells were treated with compounds for a predetermined length of time. Following the incubation period, the cells were washed three times with PBS and scraped off the plate in 250 μl of lysis buffer (50 mM potassium phosphate pH 7.0 containing 50 mM NEM and 1 mM EDTA). Cells were lysed by sonication using a micro tip probe (three pulses of 30% duty cycle; 2 output control on a Fisher Sonicator). Cell debris was pelleted by centrifugation (10 min at 16,000 g) and the cell lysate was analyzed for protein concentration using the Bio-Rad dye-binding protein assay. The concentration of nitroso compounds in the cell lysate was determined using the triiodide based chemiluminescence method using a Sievers 280 nitric oxide analyzer. Briefly, cell lysates were treated with 15% v/v of a sulfanilamide solution (5% w/v in 0.2 M HCl) and kept at room temperature for 5 min to remove nitrite. The triodide mixture was prepared fresh every day as described earlier and kept at 60° C. in the reaction vessel. The concentration of nitroso species was derived from a standard curve generated using GSNO. For determining the amount of the small size nitroso compounds in the cell lysate, a 5 kDa-cutoff Amicon ultra filtration unit was used according to the supplier's instructions. The amount of s-nitrosothiols in the cell lysate was determined by treating initially passing the cell lysate through a microspin column and treating the eluate with 5 mM HgCl2 before determining the nitroso compound concentration using chemiluminescence. For some experiments the cells were pretreated with the compounds for 16 hours prior to the day of experiment.
# GSNOR•NADH complex [3] = molecular target: T4, GSNOR•NADH complex (Homo sapiens, UniProt P11766); assay: Fluorescence equilibrium binding to GSNOR•NADH complex; settings: 1.7 μM NADH, 2 μM GSNOR, 50 μM compound 8
# T4 construct: made in house; host or cells: E. coli
# T4 sequence (P11766 2-374 limits assumed, one chain of several): as the sequence (P11766 2-374 limits assumed) above
# Description: Referring now to FIG. 2, (A) Changes in the fluorescence of NADH (curve a) upon sequential addition of GSNOR (curve b) and compound 8 (curve c). To a solution of 1.7 μM NADH were added 2 μM GSNOR and 50 μM compound 8 in sequence and the fluorescence of the solution measured each time (λexc=350 nm; λemm=375-550 nm); (B) Changes in the fluorescence of NADH (curve a) upon sequential addition of GSNOR (curve b), 12-HDDA (curve c) and compound 8 (curve d). To a solution of 1.7 μM NADH were added 2 μM GSNOR, 810 μM 12-HDDA and 50 μM compound 8 in sequence and the fluorescence measured each time (λexc=350 nm; λemm=375-550 nm); (C) Binding of compound 8 to GSNOR•NADH complex. The change in fluorescence of a 1.7 μM NADH and 2 μM GSNOR mixture (λexc=350 nm; λemm=455 nm) with increasing concentrations of compound 8 was fitted to a single site binding model (equation 1; see materials and methods) using the Graphpad Prizm 4. All of the fluorescence studies were conducted at room temperature in 50 mM potassium phosphate pH 7.5.
# Referring now to Table 3, inhibition experiments were performed at 25° C. in 50 mM potassium phosphate (pH 7.5) including 0.1 mM EDTA. […] The dissociation constant was measured at 25° C. in 50 mM potassium phosphate pH 7.5. […]
# Fluorescence studies were conducted in 50 mM potassium phosphate pH 7.5, at room temperature using a Fluoromax-2 fluorescence spectrometer (Instruments S.A., Inc., Edison, N.J.). The equilibrium dissociation constant of GSNOR inhibitors was determined by measuring the changes in the fluorescence of GSNOR bound NADH (λexc=350 nm; λemm=455 nm) upon the addition of inhibitor. […] The decrease in fluorescence at 455 nm with each addition of inhibitor was plotted against the final concentration of inhibitor and the data were fitted to equation 1 using nonlinear regression to obtain the dissociation constant of the inhibitor for GSNOR-NADH complex,
# [formula] In equation 1, ΔF is the change in the fluorescence at 455 nm upon the addition of inhibitor. ΔFM is the maximum fluorescence change that was obtained from curve fitting. […]
# GSNOR•NADH complex [4] = molecular target: T4, GSNOR•NADH complex; settings: alcohol substrate, abortive ternary complex; read-out: dissociation constant for the GSNOR•NADH complex; cited from earlier work
# GSNOR [5] = molecular target: T2, GSNOR; settings: read-out: KD of NADH for GSNOR; cited from earlier work
# Target sequence in this assay (P11766 whole entry): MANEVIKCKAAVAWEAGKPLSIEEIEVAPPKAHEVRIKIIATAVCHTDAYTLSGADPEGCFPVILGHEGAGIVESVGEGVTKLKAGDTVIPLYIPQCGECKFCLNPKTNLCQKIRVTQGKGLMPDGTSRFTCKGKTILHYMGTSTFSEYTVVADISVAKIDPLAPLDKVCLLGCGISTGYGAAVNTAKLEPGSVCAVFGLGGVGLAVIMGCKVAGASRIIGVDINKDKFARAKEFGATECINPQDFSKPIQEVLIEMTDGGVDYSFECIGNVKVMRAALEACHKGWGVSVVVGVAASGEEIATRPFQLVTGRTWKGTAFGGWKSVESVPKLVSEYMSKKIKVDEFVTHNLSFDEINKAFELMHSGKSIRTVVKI
# GSNOR [6] = molecular target: T2, GSNOR; assay: GSNOR inhibition at pH 7.5 (GSNO, NADH); format: biochemical; design: made in house; host or cells: E. coli; settings: Table 1; pH not stated
# Description: Referring now to Table 1, inhibition was studied at pH 10. These assays were performed in 0.1 M sodium glycine containing 1 mM octanol, 1 mM NAD^+, 0.1 mM EDTA and 50 μM inhibitor. Inhibition studies at pH 7.5 were performed in 50 mM potassium phosphate pH 7.5 that included 15 μM NADH, 10 μM GSNO, 0.1 mM EDTA and 50 μM inhibitor. The data file to a model consisted with partial inhibition and a hill coefficient of 2.4 in the inhibition curve. The screening for GSNOR inhibitors was performed using a library of 60,000 compounds from ChemDiv Inc in the Chemical Genomics Core facility at Indiana University. Screening was conducted in 384 well plates and involved incubating GSNOR with 12.5 μM compound, 1 mM each of NAD^+ and octanol in 0.1 M sodium glycine pH 10. Enzyme activity was determined by measuring the rate of production of NADH spectrophotometrically at 340 nm. Inhibition of GSNOR was calculated from the ratio of enzyme activity in the presence of compounds to that in no compound controls performed on the same assay plate. Following their identification from the high-throughput screening, the GSNOR inhibitory properties of the initial hits were confirmed at the pH 10 using 12-hydroxydodecanoic acid as the substrate and at pH 7.5 using GSNO as the substrate (see the brief description of Table 1 for details on how the assay was carried out.)
# Target sequence in this assay (P11766 2-374 limits assumed): as the sequence (P11766 2-374 limits assumed) above
# GSNOR [7] = molecular target: T2, GSNOR; assay: GSNOR substrate kinetics with octanol; format: biochemical; settings: octanol versus GSNO
# Description: GSNOR is an alcohol dehydrogenases and like other members of ADH family, is capable of oxidizing and reducing primary alcohols and aldehydes with the help of a molecule of NAD(H). Octanol was chosen as the substrate in the initial screening assay as it is bulky like GSNO, but has 200-fold higher KM value (1 mM) and a kcat value (200 min-1) that is more than 2 order of magnitude lower than that of GSNO. This allows the initial velocity conditions to prevail for a period up to 10 min (data not shown) and it enables conducting a large number of concurrent assays in a384 well plate format. The pH of the assay was adjusted to pH 10 in order to get significant rate of oxidation of octanol in the absence of compounds. The screening for GSNOR inhibitors was performed in the presence of saturating concentration of NAD^+ and an un-saturating concentration of octanol thereby increase the probability of identifying compounds that bind, only or primarily in the GSNO binding site of GSNOR. This was deemed desirable as there are many dehydrogenases inside the cells and compounds binding in the coenzyme binding site are more likely to be nonspecific inhibitors of GSNOR, than compounds that bind primarily to the form of GSNOR that binds GSNO.
# Target sequence in this assay (P11766 whole entry): as the sequence (P11766 whole entry) above
# T1 sequence (P08319 whole entry): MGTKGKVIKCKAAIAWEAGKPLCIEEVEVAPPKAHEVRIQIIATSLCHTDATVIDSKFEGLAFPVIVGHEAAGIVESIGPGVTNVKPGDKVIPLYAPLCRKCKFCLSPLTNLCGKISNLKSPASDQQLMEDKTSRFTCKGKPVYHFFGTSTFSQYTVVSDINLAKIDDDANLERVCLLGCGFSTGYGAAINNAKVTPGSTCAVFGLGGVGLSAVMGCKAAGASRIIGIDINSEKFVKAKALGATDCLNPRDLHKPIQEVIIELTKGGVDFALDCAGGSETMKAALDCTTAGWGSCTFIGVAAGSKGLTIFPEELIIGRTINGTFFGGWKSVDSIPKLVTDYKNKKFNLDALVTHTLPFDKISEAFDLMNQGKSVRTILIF
smiles,measurement,setting,value
Cc1ccc(C)c(-c2csc(-c3cc4ccc(O)cc4oc3=O)n2)c1 [Compound 4],inhibition of π-ADH,π-ADH,inhibited π-ADH more than GSNOR
CC(=O)Oc1ccc(C2Nc3ccc(C(=O)O)cc3C3C=CCC32)c(OC(C)=O)c1 (stereo not shown) [Compound 5],inhibition of GSNOR (in words),GSNOR [1],modestly good inhibitor
same,inhibition of σ-ADH,σ-ADH,significant inhibition
CC(=O)c1ccc(-n2c(CCC(=O)O)ccc2-c2ccccc2)cc1 [Compound 6],type of inhibition against varied NADH,GSNOR [2],uncompetitive
same,"nitrosylation, fold higher than Compound 7","RAW 264.7 cells; 33 μM initial concentration, 500 μM GSNO, 4 hr",3 fold
same,decrease in nitrosylated species relative to amounts at 4 hours,"RAW 264.7 cells; exposure up to 24 hours, data not shown",80%
same,effect on fluorescence of GSNOR bound NADH,GSNOR•NADH complex [3],quenched the NADH fluorescence
"O=C(O)CCCCCCCCCCCO [Compound 12-HDDA, 12-hydroxydodecanoic acid]",Kd,GSNOR•NADH complex [4],170 µM
"N[C@@H](CCC(=O)N[C@@H](CSN=O)C(=O)NCC(=O)O)C(=O)O [GSNO, s-nitrosoglutathione]",buildup of nitrosylated compounds in cells,RAW 264.7 cells; 500 μM GSNO alone,significant buildup
same,time to equilibrium level of nitrosylated compounds,RAW 264.7 cells; 500 μM GSNO alone,≤ 1 h
NC(=O)C1=CN([C@@H]2O[C@H](COP(=O)(O)OP(=O)(O)OC[C@H]3O[C@@H](n4cnc5c(N)ncnc54)[C@H](O)[C@@H]3O)[C@@H](O)[C@H]2O)C=CC1 [NADH],Kd,GSNOR [5],0.05 µM
O=C(O)c1ccc2c(c1)C1C=CCC1C(c1ccc(O)cc1O)N2 (stereo not shown) [hydrolyzed form of compound 5],inhibition of GSNOR compared with compound 5 (ester),GSNOR [6],three fold higher inhibition
CCCCCCCCO [octanol],"KM value, fold higher than GSNO",GSNOR [7],200 fold
